Counter-ions that a name gives are not always drawn.
Target: T1, human HSD17B13 (Homo sapiens, UniProt Q7Z5P4)
T1 sequence (Q7Z5P4 20-300): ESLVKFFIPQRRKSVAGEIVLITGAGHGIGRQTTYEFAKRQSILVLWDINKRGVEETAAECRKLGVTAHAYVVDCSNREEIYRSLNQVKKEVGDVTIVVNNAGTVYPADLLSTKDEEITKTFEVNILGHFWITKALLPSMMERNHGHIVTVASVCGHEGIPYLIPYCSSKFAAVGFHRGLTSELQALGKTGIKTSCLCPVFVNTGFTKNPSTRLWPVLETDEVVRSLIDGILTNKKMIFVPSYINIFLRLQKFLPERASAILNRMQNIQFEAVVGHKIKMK
Assay: Substrate screening of steroid and bioactive lipid libraries against purified recombinant HSD17B13 (NADH-linked luciferase assay)
Format: biochemical
Details: for HSD17B13 Enzymatic Activity Relative Light Units: 500 μM NAD+, 100 ng enzyme, 3 hours at 23° C.; for HSD17B13 Enzymatic Activity Percent Estradiol Control: normalized to 50 μM estradiol after subtraction of 5% DMSO
Protocol: To understand the functional consequences of premature truncation of the HSD17B13 protein due to rs72613567:TA (the associated variant, rs72613567, is an insertion of an adenine adjacent to the donor splice site of exon six (TA allele)), the enzymatic activity of isoforms A and D was evaluated in vitro using recombinant protein and nicotinamide […] dinucleotide as cofactor. Reactions were performed in a final volume of 40 μl of assay buffer (0.2 M Tris-HCl, pH 7.5) which contained 500 μM NAD^+, 5 μM bioactive lipid or 50 μM steroid (all in a final concentration of 5% DMSO), and 100 ng of recombinant human HSD17B13. Reactions were incubated for 3 hours, at 23° C., after which an equal volume detection reagent was added. Following a 1 hour incubation at 23° C., the relative light units (RLUs) were measured on an Envision Plate Reader (Perkin Elmer). Raw RLU values were normalized as percent of control (50 μM estradiol) following subtraction of negative control (5% DMSO) using the following formula: Percent of control (POC)=100×(Sample (RLU)−Negative CTRLaverage)/(Positive CTRLaverage−Negative CTRLaverage).

[1] = Bioactive Lipid Library, 5 μM bioactive lipid (Estradiol Control 50 μM)
[2] = Bioactive Lipid Library, 5 μM bioactive lipid

Compound | HSD17B13 Enzymatic Activity Relative Light Units [1] [RLU] | HSD17B13 Enzymatic Activity Percent Estradiol Control [2] [%] | HSD17B13 Enzymatic Activity Percent Estradiol Control (Steroid Library, 50 μM steroid) [%] | HSD17B13 Enzymatic Activity Relative Light Units (Steroid Library, 50 μM steroid) [RLU]
CCCCC/C=C\C/C=C\C=C\C(O)C/C=C\CCCC(=O)O (racemic) [(±)8-HETE] | 592720 | 22.75 |  | 
C[C@]12CCC(=O)C(O)=C1CC[C@@H]1[C@@H]2CC[C@]2(C)C(=O)CC[C@@H]12 [Formestane] |  |  | 0.63 | 
O=C(O)CCCCC(=O)CC[C@H]1[C@H](O)CC(=O)[C@@H]1CCC(=O)O [tetranor-PGEM] | 348440 | 5.17 |  | 
O=P(O)(O)OC1[C@@H](OP(=O)(O)O)[C@H](O)C(O)[C@@H](O)[C@H]1OP(=O)(O)O (stereo partly drawn) [D-myo-Inositol-3,4,5-triphosphate (sodium salt)] | 400520 | 5.70 |  | 
CC/C=C\C/C=C\C/C=C\C[C@H](O)/C=C/C=C\CCCC(=O)O [9(S)-HEPE] | 564200 | 20.63 |  | 
O=C(O)CCC/C=C\C/C=C\C/C=C\C/C=C\CCCCCO [20-HETE] | 332640 | 0.57 |  | 
CCCCC/C=C\C=C\[C@H](O)CCCCCCCCCC(=O)O (racemic) [(±)11-HEDE] | 1334080 | 77.87 |  | 
CCC(O)C(O)C/C=C\C/C=C\C/C=C\C/C=C\CCCC(=O)O (racemic) [(±)17(18)-DiHETE] | 369120 | 3.33 |  | 
CC/C=C\C[C@H](O)/C=C/[C@H]1OC(=O)C[C@H](O)[C@@H]1C/C=C\CCCC(=O)O [11-dehydro Thromboxane B3] | 322480 | 3.11 |  | 
O=C(CCC/C=C\C/C=C\C/C=C\C/C=C\CCCCCO)NCCO [20-HETE Ethanolamide] | 879760 | 41.89 |  | 
O=P(O)(O)O[C@@H]1C(O)[C@@H](OP(=O)(O)O)[C@@H](O)C(O)[C@H]1O (stereo partly drawn) [D-myo-Inositol-2,4-diphosphate (sodium salt)] | 306720 | −1.38 |  | 
CCCCC[C@@H](/C=C/C=C\CCCCCCCCCC(=O)O)OO [15(S)-HpEDE] | 232720 | −4.02 |  | 
O=C(O)CCC[C@H](O)\C=C/C=C/C=C/[C@H](O)C/C=C\CCCCCO [20-hydroxy Leukotriene B4] | 654120 | 29.33 |  | 
CCCCC/C=C\C=C\C(O)CCCCCCCC(=O)O (racemic) [(±)9-HODE] | 695320 | 30.38 |  | 
CCCCC(C)(O)C/C=C/[C@H]1[C@@H](O)CC(=O)[C@@H]1CCCCCCC(=O)OC (stereo partly drawn) [11β-Misoprostol] | 331200 | 3.80 |  | 
CC(=O)N[C@@H](CSC(=O)[C@]1([C@@H](O)C(C)C)NC(=O)[C@H](C)[C@@H]1O)C(=O)O [Lactacystin] | 328520 | 0.26 |  | 
CCCCCCCC/C=C\CCCCCCCC(=O)O [Oleic Acid] |  |  | −2.50 | 17520
CC/C=C\C/C=C\C/C=C\CC(O)/C=C/C=C\C/C=C\CCC(=O)O (racemic) [(±)11-HDHA] | 1259280 | 72.31 |  | 

Compound | HSD17B13 Enzymatic Activity Relative Light Units [1] [RLU] | HSD17B13 Enzymatic Activity Percent Estradiol Control [2] [%] | HSD17B13 Enzymatic Activity Percent Estradiol Control (Steroid Library, 50 μM steroid) [%] | HSD17B13 Enzymatic Activity Relative Light Units (Steroid Library, 50 μM steroid) [RLU]
Ptdlns-(4,5)-P2 (1,2-dioctanoyl) (sodium salt) | 348680 | 1.79 |  | 
CC(C)OC(=O)CCC/C=C\C[C@@H]1[C@@H](/C=C/[C@H](O)COc2cccc(C(F)(F)F)c2)[C@H](O)C[C@@H]1O [15(S)-Fluprostenol isopropyl ester] | 410960 | 10.11 |  | 
Ptdlns-(5)-P1 (1,2-dipalmitoyl) (ammonium salt) | 19160 | −23.10 |  | 
CCCCC/C=C\C/C=C\C/C=C\CC(O)C1CCCC(=O)O1 (racemic) [(±)5(6)-DiHET lactone] | 411120 | 6.50 |  | 
CC/C=C\C/C=C\C/C=C\C/C=C\CC1OC1CCCC(=O)OC (stereo not drawn) [5(6)-EpETE methyl ester] | 337400 | 0.93 |  | 
CCCCC[C@H](O)/C=C/C=C\C/C=C\C/C=C\CCCC(=O)NCCO [15(S)-HETE Ethanolamide] | 535680 | 19.97 |  | 
CCCCC/C=C\C/C=C\C/C=C\C=C\C1CCCC(=O)O1 (racemic) [(±)5-HETE lactone] | 348120 | 4.56 |  | 
CC/C=C\C[C@H]1C(=O)C=C[C@@H]1CCCCCCCC(=O)O [13-epi-12-oxo Phytodienoic Acid] | 320640 | 2.97 |  | 
CC/C=C\C/C=C\C/C=C\C/C=C\C=C\[C@@H](O)CCCC(=O)O [5(S)-HEPE] | 429120 | 10.58 |  | 
CCC(O)C(O)C/C=C\C/C=C\C/C=C\C/C=C\C/C=C\CCC(=O)O (racemic) [(±)19(20)-DiHDPA] | 827600 | 37.95 |  | 
CC/C=C\C[C@H](O)/C=C/[C@@H]1[C@H]2C/C(=C/CCCC(=O)[O-])O[C@H]2C[C@H]1O.[Na+] [Prostaglandin I3 (sodium salt)] | 333560 | 3.99 |  | 
CCCCC/C=C\C/C=C\CC(O)C(O)C/C=C\CCCC(=O)O (racemic) [(±)8(9)-DiHET] | 472120 | 11.11 |  | 
CC#CCC(C)[C@H](O)/C=C/[C@@H]1[C@H]2C/C(=C/CCCC(=O)O)C[C@H]2C[C@H]1O (stereo partly drawn) [Iloprost] | 358880 | 5.99 |  | 
CCCCC/C=C\C=C\[C@H](O)CCCCCCCCCC(=O)O [11(R)-HEDE] | 1674200 | 103.16 |  | 
O=P(O)(O)O[C@@H]1C(O)[C@@H](OP(=O)(O)O)[C@@H](OP(=O)(O)O)C(O)[C@H]1OP(=O)(O)O (stereo partly drawn) [D-myo-Inositol-1,2,4,5-tetraphosphate (sodium salt)] | 403880 | 5.95 |  | 
CCCCC/C=C\C[C@@H](O)/C=C/c1cccc(C[C@@H](O)CCCCO)n1 [U-75302] | 425520 | 7.59 |  | 
CCCCC[C@H](O)/C=C/C=C\C/C=C\C=C\[C@@H](O)CCCC(=O)O [5(S),15(S)-DiHETE] | 486600 | 14.86 |  | 
